Experimental data as given in US7678796B2, “MGluR5 modulators I” (AstraZeneca AB, priority 2006, dated 2010).

Columns and labels:
[1] = Determination of in vitro stability in human liver microsomes (CLint); assay type: in vitro ADME; details: pH 7.4, 0.5 mg/mL protein, 1.0 μmol/L compound, NADPH
Description: Rat liver microsomes are prepared from Sprague-Dawley rats liver samples. Human liver microsomes are either prepared from human liver samples or acquired from BD Gentest. The compounds are incubated at 37° C. at a total microsome protein concentration of 0.5 mg/mL in a 0.1 mol/L potassium phosphate buffer at pH 7.4, in the presence of the cofactor, NADPH (1.0 mmol/L). The initial concentration of compound is 1.0 μmol/L. Samples are taken for analysis at 5 time points, 0, 7, 15, 20 and 30 minutes after the start of the incubation. The enzymatic activity in the collected sample is immediately stopped by adding a 3.5 times volume of acetonitrile. The concentration of compound remaining in each of the collected samples is determined by means of LC-MS. The elimination rate constant (k) of the mGluR5 inhibitor is calculated as the slope of the plot of In[mGluR5 inhibitor] against incubation time (minutes). The elimination rate constant is then used to calculate the half-life (T ½) of the mGluR5 inhibitor, which is subsequently used to calculate the intrinsic clearance (CLint) of the mGluR5 inhibitor in liver microsomes as: CLint.=(ln 2×incubation volume)/(T ½×protein concentration)=μl/min/mg

[2] = Determination of brain to plasma ratio in rat; assay type: in vivo; details: female Sprague Dawley rats, read-out: Brain/Plasma Ratio of compound in Rat
Description: Brain to plasma ratios are estimated in female Sprague Dawley rats. The compound is dissolved in water or another appropriate vehicle. For determination of brain to plasma ratio the compound is administrated as a subcutaneous, or an intravenous bolus injection, or an intravenous infusion, or an oral administration. At a predetermined time point after the administration a blood sample is taken with cardiac puncture. The rat is terminated by cutting the heart open, and the brain is immediately retained. The blood samples are collected in heparinized tubes and centrifuged within 30 minutes, in order to separate the plasma from the blood cells. The plasma is transferred to 96-well plates and stored at −20° C. until analysis. The brains are divided in half, and each half is placed in a pre-tarred tube and stored at −20° C. until analysis. Prior to the analysis, the brain samples are thawed and 3 mL/g brain tissue of distilled water is added to the tubes. The brain samples are sonicated in an ice bath until the samples are homogenized. Both brain and plasma samples are precipitated with acetonitrile. After centrifugation, the supernatant is diluted with 0.2% formic acid. Analysis is performed on a short reversed-phase HPLC column with rapid gradient elution and MSMS detection using a triple quadrupole instrument with electrospray ionisation and Selected Reaction Monitoring (SRM) acquisition. Liquid-liquid extraction may be used as an alternative sample clean-up. The samples are extracted, by shaking, to an organic solvent after addition of a suitable buffer. An aliquot of the organic layer is transferred to a new vial and evaporated to dryness under a stream of nitrogen. After reconstitution of the residuals the samples are ready for injection onto the HPLC column.

[3] = target: HERG (Homo sapiens, UniProt Q12809); experiment: HERG ionworks; assay type: cell-based
Sequence of HERG (Q12809 whole entry): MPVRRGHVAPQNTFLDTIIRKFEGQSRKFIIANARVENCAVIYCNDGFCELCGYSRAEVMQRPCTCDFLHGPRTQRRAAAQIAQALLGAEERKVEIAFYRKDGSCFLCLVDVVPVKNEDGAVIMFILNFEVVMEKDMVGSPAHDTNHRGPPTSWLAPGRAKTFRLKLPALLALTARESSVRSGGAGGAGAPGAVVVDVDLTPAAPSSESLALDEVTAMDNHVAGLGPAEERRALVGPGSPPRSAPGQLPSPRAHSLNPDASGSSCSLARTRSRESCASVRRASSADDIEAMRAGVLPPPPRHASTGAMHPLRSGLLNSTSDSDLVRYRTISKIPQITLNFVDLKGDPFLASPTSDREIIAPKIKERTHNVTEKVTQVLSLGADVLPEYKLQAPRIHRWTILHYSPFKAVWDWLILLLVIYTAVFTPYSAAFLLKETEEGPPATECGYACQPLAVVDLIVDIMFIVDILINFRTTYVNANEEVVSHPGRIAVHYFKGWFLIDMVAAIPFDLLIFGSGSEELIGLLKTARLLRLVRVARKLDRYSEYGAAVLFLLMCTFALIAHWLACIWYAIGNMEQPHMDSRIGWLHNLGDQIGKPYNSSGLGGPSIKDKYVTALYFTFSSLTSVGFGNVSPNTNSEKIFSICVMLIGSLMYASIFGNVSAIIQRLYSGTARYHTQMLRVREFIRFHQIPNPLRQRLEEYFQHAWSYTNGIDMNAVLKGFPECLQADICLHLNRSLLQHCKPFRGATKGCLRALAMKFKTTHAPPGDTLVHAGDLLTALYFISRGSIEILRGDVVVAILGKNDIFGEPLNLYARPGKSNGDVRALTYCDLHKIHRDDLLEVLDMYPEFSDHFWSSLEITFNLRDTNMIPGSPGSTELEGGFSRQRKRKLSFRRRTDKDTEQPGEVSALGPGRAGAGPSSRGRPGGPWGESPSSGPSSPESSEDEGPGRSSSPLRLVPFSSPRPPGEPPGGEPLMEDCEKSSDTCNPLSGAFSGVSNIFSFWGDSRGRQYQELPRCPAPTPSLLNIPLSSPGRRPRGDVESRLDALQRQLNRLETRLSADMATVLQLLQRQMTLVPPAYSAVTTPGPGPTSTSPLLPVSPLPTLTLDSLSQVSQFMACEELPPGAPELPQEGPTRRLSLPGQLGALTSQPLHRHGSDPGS

[4] = target: T1, human mGluR5d (Homo sapiens, UniProt P41594); experiment: FLIPR assay, functional assessment of mGluR5 antagonism (intracellular calcium mobilization); assay type: cell-based; details: cells expressing human mGluR5d; read-out: FLIPR hmGluR5d
T1 construct: expressed in transfected cells
T1 sequence (P41594 21-942 isoform P41594-3 limits assumed): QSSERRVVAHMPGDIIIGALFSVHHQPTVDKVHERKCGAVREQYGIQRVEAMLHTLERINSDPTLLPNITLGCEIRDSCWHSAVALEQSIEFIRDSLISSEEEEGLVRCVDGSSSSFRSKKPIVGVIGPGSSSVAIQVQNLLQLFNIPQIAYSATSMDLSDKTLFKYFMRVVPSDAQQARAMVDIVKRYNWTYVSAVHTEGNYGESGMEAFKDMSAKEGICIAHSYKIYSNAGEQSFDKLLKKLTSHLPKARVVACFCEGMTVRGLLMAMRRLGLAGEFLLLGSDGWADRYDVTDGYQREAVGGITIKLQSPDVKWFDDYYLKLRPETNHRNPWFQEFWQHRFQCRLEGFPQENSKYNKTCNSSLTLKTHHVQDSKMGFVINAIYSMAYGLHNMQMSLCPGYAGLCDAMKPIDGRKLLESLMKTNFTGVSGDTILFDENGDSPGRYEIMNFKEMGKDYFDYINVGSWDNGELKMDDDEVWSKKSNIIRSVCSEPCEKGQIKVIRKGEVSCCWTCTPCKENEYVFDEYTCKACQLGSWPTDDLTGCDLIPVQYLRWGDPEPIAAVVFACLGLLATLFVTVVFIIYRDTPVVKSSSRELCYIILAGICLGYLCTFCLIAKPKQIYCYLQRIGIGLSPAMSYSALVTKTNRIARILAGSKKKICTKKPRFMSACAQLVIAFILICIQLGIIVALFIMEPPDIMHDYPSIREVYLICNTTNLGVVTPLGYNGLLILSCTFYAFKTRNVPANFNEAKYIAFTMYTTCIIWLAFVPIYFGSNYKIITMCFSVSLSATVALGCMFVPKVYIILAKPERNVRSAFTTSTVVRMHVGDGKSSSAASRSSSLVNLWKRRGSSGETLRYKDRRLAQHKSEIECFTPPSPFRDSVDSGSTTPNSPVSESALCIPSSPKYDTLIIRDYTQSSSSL
From the text: Biological Evaluation Functional Assessment of mGluR5 Antagonism in Cell Lines Expressing mGluR5D
The properties of the compounds of the invention can be analyzed using standard assays for pharmacological activity. Examples of glutamate receptor assays are well known in the art as described in for example Aramori et al., Neuron 8:757 (1992), Tanabe et al., Neuron 8:169 (1992), Miller et al., J. Neuroscience 15: 6103 (1995), Balazs, et al., J. Neurochemistry 69:151 (1997). The methodology described in these publications is incorporated herein by reference. Conveniently, the compounds of the invention can be studied by means of an assay (FLIPR) that measures the mobilization of intracellular calcium, [Ca^2+]i in cells expressing mGluR5 or another assay (IP3) that measures inositol phosphate turnover.
Cells expressing human mGluR5d as described in WO97/05252 are seeded at a density of 100,000 cells per well on collagen coated clear bottom 96-well plates with black sides and experiments are done 24 h following seeding. All assays are done in a buffer containing 127 mM NaCl, 5 mM KCl, 2 mM MgCl2, 0.7 mM NaH2PO4, 2 mM CaCl2, 0.422 mg/mL NaHCO3, 2.4 mg/mL HEPES, 1.8 mg/mL glucose and 1 mg/mL BSA Fraction IV (pH 7.4). Cell cultures in the 96-well plates are loaded for 60 minutes in the above mentioned buffer containing 4 μM of the acetoxymethyl ester form of the fluorescent calcium indicator fluo-3 (Molecular Probes, Eugene, Oreg.) in 0.01% pluronic acid (a proprietary, non-ionic surfactant polyol—CAS Number 9003-11-6). Following the loading period the fluo-3 buffer is removed and replaced with fresh assay buffer. FLIPR experiments are done using a laser setting of 0.800 W and a 0.4 second CCD camera shutter speed with excitation and emission wavelengths of 488 nm and 562 nm, respectively. Each experiment is initiated with 160 μl of buffer present in each well of the cell plate. A 40 μl addition from the antagonist plate was followed by a 50 μL addition from the agonist plate. A 30 minute interval separates the antagonist and agonist additions. The fluorescence signal is sampled 50 times at 1 second intervals followed by 3 samples at 5 second intervals immediately after each of the two additions. Responses are measured as the difference between the peak height of the response to agonist, less the background fluorescence within the sample period. IC50 determinations are made using a linear least squares fitting program.

Row | Structure (SMILES) | microsomal CLint at 1 μmol/L [1] [µL/min/mg] | Kp [2] | HERG ionworks [3] [µM] | IC50 [4] [µM]
1 | Cn1c(-c2ccnnc2)nnc1N1CCC[C@@H]1c1cc(-c2cccc(Cl)c2)on1 [Example 31.8, 4-(5-{(R)-2-[5-(3-Chloro-phenyl)-isoxazol-3-yl]-pyrrolidin-1-yl}-4-methyl-4H-[1,2,4]triazol-3-yl)-pyridazine] | < 12 | 0.11 | 16 | 0.025
2 | Cn1c(-c2ccn(C)c(=O)c2)nnc1N1CCC[C@@H]1c1nnn(-c2cccc(Cl)c2)n1 [Example 31.11, 4-(5-{(R)-2-[2-(3-Chloro-phenyl)-2H-tetrazol-5-yl]-pyrrolidin-1-yl}-4-methyl-4H-[1,2,4]triazol-3-yl)-1-methyl-1H-pyridin-2-one] | < 12 | 0.035 | 20 | 0.039
3 | Cn1c(-c2ccc(=O)n(C)c2)nnc1N1CCC[C@@H]1c1cc(-c2cccc(Cl)c2)on1 [Example 31.7, 5-(5-{(R)-2-[5-(3-Chloro-phenyl)-isoxazol-3-yl]-pyrrolidin-1-yl}-4-methyl-4H-[1,2,4]triazol-3-yl)-1-methyl-1H-pyridin-2-one] | < 12 | 0.005 | 23 | 0.047
4 | Cc1cccc(-c2cc([C@H]3CCCN3c3nnc(-c4ccn(C)c(=O)c4)n3C)no2)c1 [Example 31.19, 1-Methyl-4-{4-methyl-5-[(R)-2-(5-m-tolylisoxazol-3-yl)pyrrolidin-1-yl]-4H-[1,2,4]triazol-3-yl}-1H-pyridin-2-one] | < 12 | 0.01 | 24 | 0.05
